Values joined by “and” are separate entries in the source; they are usually repeats but may differ in a detail not shown here. Equal entries are not always repeated. Structures can show the parent of a compound that is named as a salt. Where two headings read alike, the source gives them in different places.

Assay [1] concerns thymus cells of normal BALB/c mice (PHA and IL-1 induced lymphocyte proliferation). Description: comitogen-induced thymocyte proliferation procedure (LAF). Type of assay: cell-based. Conditions: for IC50: read-out: LAF IC50. The method, then:
Immunosuppressive activity for representative compounds of this invention was evaluated in an in vitro standard pharmacological test procedure to measure lymphocyte proliferation (LAF) and in three in vivo standard pharmacological test procedures. The pinch skin graft test procedure measures the immunosuppressive activity of the compound tested as well as the ability of the compound tested to inhibit or treat transplant rejection. The adjuvant arthritis standard pharmacological test procedure, which measures the ability of the compound tested to inhibit immune mediated inflammation. The adjuvant arthritis test procedure is a standard pharmacological test procedure for rheumatoid arthritis. Representative compounds of this invention were also evaluated in a heart allograft standard pharmacological test procedure which measures immunosuppressive activity of the compound tested as well as the ability of the compound tested to inhibit or treat transplant rejection. The procedures for these standard pharmacological test procedures are provided below.
The comitogen-induced thymocyte proliferation procedure (LAF) was used as an in vitro measure of the immunosuppressive effects of representative compounds. Briefly, cells from the thymus of normal BALB/c mice are cultured for 72 hours with PHA and IL-1 and pulsed with tritiated thymidine during the last six hours. Cells are cultured with and without various concentrations of rapamycin, cyclosporin A, or test compound. Cells are harvested and incorporated radioactivity is determined. Inhibition of lymphoproliferation is assessed as percent change in counts per minute from non-drug treated controls. For each compound evaluated, rapamycin was also evaluated for the purpose of comparison. An IC50 was obtained for each test compound as well as for rapamycin. […] The results obtained are provided as an IC50.

Assay [2] relates to pinch skin graft from male BALB/c donors transplanted to male C3 H(H-2K) recipients. The assay is described as follows: pinch skin graft survival test procedure. In kind it is in vivo, C3 H(H-2K) recipients (mice). The note with it: for Skin graft survival time (mean survival time ± S.D.): 4 mg/kg, intraperitoneally or orally, untreated grafts rejected within 6-7 days.
Description: Representative compounds of this invention were also evaluated in an in vivo test procedure designed to determine the survival time of pinch skin graft from male BALB/c donors transplanted to male C3 H(H-2K) recipients. […] Briefly, a pinch skin graft from the donor was grafted on the dorsum of the recipient as a allograft, and an isograft was used as control in the same region. The recipients were treated with either varying concentrations of test compounds intraperitoneally or orally. Rapamycin was used as a test control. Untreated recipients serve as rejection control. The graft was monitored daily and observations were recorded until the graft became dry and formed a blackened scab. This was considered as the rejection day. The mean graft survival time (number of days±S.D.) of the drug treatment group was compared with the control group. […] Results are expressed as the mean survival time in days. Untreated (control) pinch skin grafts are usually rejected within 6-7 days. Compounds were tested using a dose of 4 mg/kg.
The next assay relates to IgE-like antibodies. Conditions: cited from earlier work.
Another assay has as its system adjuvant arthritis. Conditions: model for rheumatoid arthritis; cited from earlier work.
Assay [3] deals with experimental allergic encephalomyelitis. The note with it: model for multiple sclerosis; cited from earlier work.
The next assay relates to Candida albicans. Conditions: in vitro and in vivo, particularly against Candida albicans; cited from earlier work.
The mark [4] stands for this setting: thymocytes cultured 72 hours with PHA and IL-1, tritiated thymidine last six hours.
The mark [5] stands for this setting: thymocytes cultured 72 hours with PHA and IL-1, tritiated thymidine last six hours, hydrochloride salt.

In general, IC50 refers to the concentration that inhibits the measured activity by half. For the compound `CO[C@H]1C[C@@H]2CC[C@@H](C)[C@@](O)(O2)C(=O)C(=O)N2CCCC[C@H]2C(=O)O[C@H]([C@H](C)C[C@@H]2CCC(=O)[C@H](OC)C2)CC(=O)[C@H](C)/C=C(\C)[C@@H](OC(=O)CN(C)C)[C@@H](OC)C(=O)[C@H](C)C[C@H](C)/C=C/C=C/C=C/1C` [Example 1, 42-Oxorapamycin-31-ester with 31-N,N-dimethylglycine], the IC50 in assay [1] (setting [4]) is 9.7 nM. The “Skin graft survival time (mean survival time ± S.D.)” value (shortened to “Skin graft survival time”) in assay [2] worked out at 9.6 ± 0.9 days.

Take `CO[C@H]1C[C@@H]2CC[C@@H](C)[C@@](O)(O2)C(=O)C(=O)N2CCCC[C@H]2C(=O)O[C@H]([C@H](C)C[C@@H]2CCC(=O)[C@H](OC)C2)CC(=O)[C@H](C)/C=C(\C)[C@@H](OC(=O)CN(C)C)[C@@H](OC)C(=O)[C@H](C)C[C@H](C)/C=C/C=C/C=C/1C` [Example 2, 42-Oxorapamycin-31-ester with 31-N,N-dimethylglycine hydrochloride salt]: the IC50 in assay [1] (setting [5]) turned out to be 23.4 nM. Further, the “Skin graft survival time” value in assay [2] (hydrochloride salt) was 10.0 ± 0.0 days and 10.3 ± 0.5 days.

On to `CO[C@H]1C[C@@H]2CC[C@@H](C)[C@@](O)(O2)C(=O)C(=O)N2CCCC[C@H]2C(=O)O[C@H]([C@H](C)C[C@@H]2CCC(=O)[C@H](OC)C2)CC(=O)[C@H](C)/C=C(\C)[C@@H](OC(=O)CN(C)C)[C@@H](OC)C(=O)[C@H](C)C[C@H](C)/C=C/C=C/C=C/1C` [Example 3, 42-Oxorapamycin-31-ester with 31-N,N-dimethylglycine maleate salt], for which the IC50 in assay [1] (thymocytes cultured 72 hours with PHA and IL-1, tritiated thymidine last six hours, maleate salt) came to 14.4 nM. Further, the “Skin graft survival time” value in assay [2] (maleate salt) worked out at 9.2 ± 1.3 days.

On to `CO[C@H]1C[C@@H]2CC[C@@H](C)[C@@](O)(O2)C(=O)C(=O)N2CCCC[C@H]2C(=O)O[C@H]([C@H](C)C[C@@H]2CC[C@@H](OC(=O)C(C)(C)NC(=O)OCC3c4ccccc4-c4ccccc43)[C@H](OC)C2)CC(=O)[C@H](C)/C=C(\C)[C@@H](O)[C@@H](OC)C(=O)[C@H](C)C[C@H](C)/C=C/C=C/C=C/1C` [Example 4, Rapamycin 42-ester with 2-(9H-fluoren-9-ylmethoxycarbonylamino)-2-methylpropionic acid], for which the “immunosuppressive activity in the LAF procedure (in words)” value in assay [1] is recorded as “shown to have immunosuppressive activity”. The “Skin graft survival time” value in assay [2] was 11.7 ± 0.8 days and 14.2 ± 0.6 days. Further, in assay [2] (mouse, in vivo), the “immunosuppressive activity in the skin graft procedure (in words)” value is “shown to have immunosuppressive activity”.

In the case of `CO[C@H]1C[C@@H]2CC[C@@H](C)[C@@](O)(O2)C(=O)C(=O)N2CCCC[C@H]2C(=O)O[C@H]([C@H](C)C[C@@H]2CC[C@@H](OC(=O)C(C)(C)N)[C@H](OC)C2)CC(=O)[C@H](C)/C=C(\C)[C@@H](O)[C@@H](OC)C(=O)[C@H](C)C[C@H](C)/C=C/C=C/C=C/1C` [Example 5, Rapamycin 42-ester with 2-amino-2-methylpropionic acid], the “Skin graft survival time” value in assay [2] is 12.3 ± 1.0 days and 11.8 ± 1.3 days.

Turning to `CO[C@H]1C[C@@H]2CC[C@@H](C)[C@@](O)(O2)C(=O)C(=O)N2CCCC[C@H]2C(=O)O[C@H]([C@H](C)C[C@@H]2CC[C@@H](OC(=O)C(C)(C)N)[C@H](OC)C2)CC(=O)[C@H](C)/C=C(\C)[C@@H](O)[C@@H](OC)C(=O)[C@H](C)C[C@H](C)/C=C/C=C/C=C/1C` [Example 7, Rapamycin 42-ester with 2-amino-2,-methylpropionic acid hydrochloride salt], the IC50 in assay [1] (setting [5]) was 3.9 nM. The “Skin graft survival time” value in assay [2] (hydrochloride salt) is 10.2 ± 1.2 days.

On to `CO[C@H]1C[C@@H]2CC[C@@H](C)[C@@](O)(O2)C(=O)C(=O)N2CCCC[C@H]2C(=O)O[C@H]([C@H](C)C[C@@H]2CC[C@@H](OC(=O)C3(N)CCCC3)[C@H](OC)C2)CC(=O)[C@H](C)/C=C(\C)[C@@H](O)[C@@H](OC)C(=O)[C@H](C)C[C@H](C)/C=C/C=C/C=C/1C` [Example 10, Rapamycin 42-ester with 1-aminocyclopentane carboxylic acid], for which the IC50 in assay [1] (setting [4]) is 6 nM. Also, the “Skin graft survival time” value in assay [2] was 10.5 ± 0.6 days and 10.2 ± 1.0 days.

For `CO[C@H]1C[C@@H]2CC[C@@H](C)[C@@](O)(O2)C(=O)C(=O)N2CCCC[C@H]2C(=O)O[C@H]([C@H](C)C[C@@H]2CC[C@@H](OC(=O)C3(N)CCCC3)[C@H](OC)C2)CC(=O)[C@H](C)/C=C(\C)[C@@H](O)[C@@H](OC)C(=O)[C@H](C)C[C@H](C)/C=C/C=C/C=C/1C` [Example 11, Rapamycin 42-ester with 1-aminocyclopentane carboxylic acid hydrochloride salt], in assay [1] (setting [5]), the IC50 is 0.63 nM. Moreover, in assay [2] (hydrochloride salt), the “Skin graft survival time” value was 10.3 ± 0.5 days and 11.5 ± 0.8 days and 12.3 ± 1.0 days.

As for `CO[C@H]1C[C@@H]2CC[C@@H](C)[C@@](O)(O2)C(=O)C(=O)N2CCCC[C@H]2C(=O)O[C@H]([C@H](C)C[C@@H]2CC[C@@H](OC(=O)C3(N)CCCCC3)[C@H](OC)C2)CC(=O)[C@H](C)/C=C(\C)[C@@H](O)[C@@H](OC)C(=O)[C@H](C)C[C@H](C)/C=C/C=C/C=C/1C` [Example 14, Rapamycin 42-ester with 1-aminocyclohexane carboxylic acid], in assay [2], the “Skin graft survival time” value is 10.6 ± 0.5 days and 12.4 ± 1.1 days.

For `CO[C@H]1C[C@@H]2CC[C@@H](C)[C@@](O)(O2)C(=O)C(=O)N2CCCC[C@H]2C(=O)O[C@H]([C@H](C)C[C@@H]2CC[C@@H](OC(=O)C3(N)CCCCC3)[C@H](OC)C2)CC(=O)[C@H](C)/C=C(\C)[C@@H](O)[C@@H](OC)C(=O)[C@H](C)C[C@H](C)/C=C/C=C/C=C/1C` [Example 15, Rapamycin 42-ester with 1-aminocyclohexane carboxylic acid hydrochloride salt], in assay [1] (setting [5]), the IC50 is 0.7 nM and 0.4 nM. Also, the “Skin graft survival time” value in assay [2] (hydrochloride salt) was 11.5 ± 1.2 days and 11.2 ± 0.8 days.

As to `CO[C@H]1C[C@@H]2CC[C@@H](C)[C@@](O)(O2)C(=O)C(=O)N2CCCC[C@H]2C(=O)O[C@H]([C@H](C)C[C@@H]2CC[C@@H](O)[C@H](OC)C2)CC(=O)[C@H](C)/C=C(\C)[C@@H](O)[C@@H](OC)C(=O)[C@H](C)C[C@H](C)/C=C/C=C/C=C/1C` [rapamycin], the IC50 in assay [1] (Mus musculus, Lymphocyte) lay in the range of 0.4 to 6.8 nM. Also, the “formation of IgE-like antibodies (in words)” value in the assay on IgE-like antibodies is reported as “effectively inhibited”. Also, the “effect in the adjuvant arthritis model (in words)” value in the assay on adjuvant arthritis was “effective”. Further, the “effect in the experimental allergic encephalomyelitis model (in words)” value in assay [3] was “effective”. Moreover, in the assay on Candida albicans, the “antifungal activity (in words)” value is given as “antifungal activity”.

The values are drawn from US5385910A, “Gem-distributed esters of rapamycin” (American Home Products Corporation, priority 1993, dated 1995).
